Laboratory results as given in patent US20260115185A1, “QUINOLINE DERIVATIVES WHICH ACT AS KAPPA-OPIOID RECEPTOR ANTAGONISTS” (The Scripps Research Institute, priority 2023, published 2026).

How the values were obtained:
[1] = biological target: T1, kappa opioid receptor (KOR) (Homo sapiens, UniProt P41145); assay: OPRKappa 1 Tango B-Arrestin Assay, antagonist mode (Tango OPRK1-bla U2OS cells, U50488 EC80 challenge); format: cell-based; conditions: for Selectivity (MOR/KOR): Kappa selectivity, MOR IC50 / KOR IC50; for IC50: antagonist mode, Tango OPRK1-bla U2OS cells, 6 nM U50488 challenge
T1 construct: host or cells: U2OS (Tango OPRK1-bla U2OS)
T1 sequence (P41145 whole entry): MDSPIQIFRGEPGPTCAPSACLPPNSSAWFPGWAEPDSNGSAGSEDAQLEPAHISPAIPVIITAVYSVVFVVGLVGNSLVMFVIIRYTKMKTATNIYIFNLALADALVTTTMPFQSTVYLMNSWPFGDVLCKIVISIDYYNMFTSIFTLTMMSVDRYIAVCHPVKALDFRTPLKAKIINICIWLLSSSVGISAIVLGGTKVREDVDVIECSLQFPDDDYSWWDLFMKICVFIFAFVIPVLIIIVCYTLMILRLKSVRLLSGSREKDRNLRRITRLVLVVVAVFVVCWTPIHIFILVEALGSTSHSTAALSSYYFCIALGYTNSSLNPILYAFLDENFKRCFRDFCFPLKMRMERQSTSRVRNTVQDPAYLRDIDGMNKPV
From the text: OPRKappa 1 Tango B-Arrestin Assay Protocol-Antagonist Mode. […] The assay uses Tango OPRK1-bla U2OS cells which express OPRK1 linked to a GAL4-VP16 transcription factor via a TEV protease site. The cells also express a β-arrestin/TEV protease fusion protein and a β-lactamase (BLA) reporter gene under the control of a UAS response element. Stimulation of the OPRK1 receptor by agonist causes migration of the β-arrestin fusion protein to the GPCR, and through proteolysis liberates GAL4-VP16 from the receptor. The liberated VP16-GAL4 migrates to the nucleus, where it induces transcription of the BLA gene. BLA expression is monitored by measuring fluorescence resonance energy transfer (FRET) of a cleavable, fluorogenic, cell-permeable BLA substrate. As designed, test compounds that are OPRK1 antagonists inhibit agonist activation and migration of the fusion protein, thus preventing proteolysis of GAL4-VP16 and BLA transcription, leading to no increase in well FRET. Compounds were tested in quadruplicate using a 10-point, 1:3 dilution series starting at a nominal concentration of 10 micromolar.
The Tango OPRK1-U20S Dividing cell line was routinely cultured in 150 mm dishes at 37C, 5% CO2 and 95% relative humidity (RH).
On Day 1 of the assay, 16,000 cells in 10 μL of assay media (DMEM-Glutamax—with Sodium Pyruvate, 10% fetal bovine serum stripped with charcoal-dextran (CDS), 25 mM HEPES, 0.1 mM non-essential amino acids, antibiotic mix (penicillin streptomycin)) were seeded into each well of a 384 Greiner 788092 black low profile, clear bottom, low volume plate, and incubated 16-24 hours at 37° C., 5% CO2 and 95% (RH).
On Day 2, 50 nL of test compound in DMSO was added to the appropriate wells and plates were incubated for 30 min at 37° C. 5% CO2 and 95% (RH). Next was added 0.65 μL of commercially available U50488 OPRK1 agonist or DMSO in assay media: this EC80 Challenge consists of 0.6 μL of 111 nM U50488 to yield a final assay concentration of 6 nM). After incubation for 4 hours at 37° C., 5% CO2 and 95% (RH), 2.5 μL of LiveBLazer™FRET B/G (CCF4-AM) Mix (Soln.'s A,B,C,&D) was added to each well and incubated at room temperature in the dark for 2 hours. Well fluorescence was measured on Perkin Elmer's Envision using an Excitation filter 409 nm, Emission filters at 460 nm and […], bottom read.
(§1) The Percent Inhibition was calculated from the median ratio as follows:
• Tango™OPRK1-bla U20S Cells (Invitrogen K1576) • McCoy's 5A Medium, (Invitrogen 16600-082) • Dialyzed Fetal Bovine Serum, (Invitrogen 26400-036) • Non Essential Amino Acids 100× (Invitrogen part 11140-050) • HEPES (pH 7.3) 1M, (Invitrogen 15630-080) • Sodium Pyruvate 100× (Invitrogen 11360-070) • Penicillin Streptomycin, (Invitrogen 15640) • Trypsin 0.25% EDTA (Invitrogen 25200056) • DPBS without Calcium/Magnesium (Invitrogen 14190-136) • DMEM, High Glucose, GlutaMAX (Invitrogen 10569-010) • Fetal Bovine Serum, Charcoal Stripped (Invitrogen 12676-011) • DMSO Dry (Sigma D2650) • U50488 OPRK1 Agonist MW410.29 (Tocris 67198-19-0) • GNTI dihydrochloride OPRK1 Antagonist MW571.5 (Tocris 1282) • Nor-Binaltorphimine dihydrochloridc MW770.75 (Tocris 0347)
LiveBLAzere™-FRET/BG Loading Mix: (Invitrogen K1030 (5 mg)), composed of Solutions A, B, C, and D: • Solution A (6 μL): LiveBLAzer™-FRET/BG Substrate (CCF4-AM) • Solution B (60 μL) • Solution C (904 μL) • Solution C (must add 250 μl of 1N NaOH to 45 mL of Solution C prior to use) • Solution D (30 μL) [Probinicid] (Sigma P8161) make 200 mM stock in NaOH—H2O.

mu opioid receptor (MOR) = biological target: T2, mu opioid receptor (MOR) (Homo sapiens, UniProt P35372); assay: OPRMu1 Discover X β-arrestin Assay, antagonist mode (U2OS cells, DAMGO EC80 challenge); format: cell-based
T2 construct: host or cells: U2OS (Discover X OPRMu1-U2OS, PathHunter)
T2 sequence (P35372 whole entry): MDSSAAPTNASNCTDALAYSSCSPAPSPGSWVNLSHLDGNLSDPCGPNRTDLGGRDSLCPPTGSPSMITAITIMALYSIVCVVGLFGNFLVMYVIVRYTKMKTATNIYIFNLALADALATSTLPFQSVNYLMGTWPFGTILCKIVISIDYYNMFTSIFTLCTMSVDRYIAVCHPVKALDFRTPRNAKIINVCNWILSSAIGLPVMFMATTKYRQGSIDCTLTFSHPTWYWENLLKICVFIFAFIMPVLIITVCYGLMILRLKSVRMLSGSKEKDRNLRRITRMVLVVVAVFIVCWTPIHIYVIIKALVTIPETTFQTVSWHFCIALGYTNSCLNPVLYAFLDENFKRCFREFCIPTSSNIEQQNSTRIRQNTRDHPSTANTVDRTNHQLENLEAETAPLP
From the text: OPRMu1 Discover X—β-arrestin Assay—Antagonist Mode. […] This assay evaluates the OPRMu1 activation in membrane recruitment of β-arrestin. In addition, the assay evaluates GPCR-β-arrestin proximity using low affinity fragment complementation of beta-galactosidase (beta-gal). The assay employs U20S cells, which express OPRMu1 fused to the complementary beta-gal fragment (enzyme acceptor). As designed, compounds that act as antagonists will prevent receptor activation resulting in reduced well luminescence. Compounds were tested in quadruplicate using a 10-point, 1:3 dilution series starting at a nominal concentration of 10 micromolar.
The Discover X OPRMu1-U20S cell line was cultured in 150 mm dishes at 37° C., 5% CO2 and 95% relative humidity (RH).
On Day 1 of the assay, 5000 cells in 20 μL of assay buffer (Discover X's Cell Plating Reagent 5) were seeded into each well of a 384 Corning 3570 standard white plate, and incubated 16-24 hours at 37° C., 5% CO2 and 95% RH.
On Day 2, 100 nL of test compound in DMSO were added to the appropriate wells and the plates were then incubated for 30 min at 37° C. 5% CO2 and 95% RH. Next, 2.2 μL of DAMGO OPRMu1 agonist (commercially available) or DMSO in assay media. (The EC80 Challenge consists of 1.8 μL of 3.7 μM DAMGO, 0.4 μL of Assay Buffer, with a final assay concentration of 303 nM). After incubation for 3 hours at 37° C. 5% CO2, and 95% RH, 10 μL of Path Hunter Detection Mix was added to each well, and the plate was then incubated at room temperature in the dark for 1 hour. Well luminescence was measured on Perkin Elmer's Envision.
as §1
• DMEM Medium, (Invitrogen 11965) • F12 Medium, (Invitrogen 11765) • Heat Inactivated Fetal Bovine Serum, (Invitrogen 10082147) • Non Essential Amino Acids 100× (Invitrogen 11140-050) • HEPES (pH 7.3) 1M, (Invitrogen 15630-080) • Sodium Pyruvate 100× (Invitrogen 11360-070) • Penicillin Streptomycin, (Invitrogen 15640) • Trypsin 0.25% EDTA (Invitrogen 25200056) • DPBS without Calcium/Magnesium (Invitrogen 14190-136) • DMSO Dry (Sigma D2650) • DAMGO OPRMu1 Agonist MW513.19 (Sigma E7384-5MG) • B-Funaltrexamine Hydrochloride OPRM1 Antagonist MW (SIGMA 0003-2MG) • PathHunter Cell Plating 5 Reagent (Discover X 93-0563R5A) • Corning 3750 Standard 384 well white plate with lid.
PathHunter Detection Mix (DiscoverX 93-0001): 1 part Galacton Star/5 parts Emerald II/19 parts PH Cell Assay Buffer.

SMILES | Selectivity (MOR/KOR) [1] | IC50 [1] [nM] | IC50 (mu opioid receptor (MOR)) [nM]
CCc1cc(F)c2nc(N3CC[C@H](NC4CCOCC4)[C@H](F)C3)c(-c3ccn(C)n3)c(C)c2c1F [Compound 69] | +++ (between 100- to 1000-fold selective) | 10 to 100 | > 1000
CCc1cc(F)c2nc(N3CCC(N[C@H]4CCOC[C@@H]4F)CC3)c(-c3cc(C)n(C)n3)c(C)c2c1 [Compound 3, 1-(3-(1,5-dimethyl-1H-pyrazol-3-yl)-6-ethyl-8-fluoro-4-methylquinolin-2-yl)-N-((3R,4S)-3-fluorotetrahydro-2H-pyran-4-yl)piperidin-4-amine] | +++ (between 100- to 1000-fold selective) | 1 to 10 | 100 to 1000
CCc1cc(F)c2nc(N3CCN(C[C@H]4CCOC4)C[C@H]3C)c(-c3ccn(C)n3)c(C)c2c1 [Compound 58] | +++ (between 100- to 1000-fold selective) | 10 to 100 | > 1000
CCc1cc(F)c2nc(N3CCN(C(=O)[C@H](C)N4CC[C@@H](F)C4)C[C@H]3C)c(-c3nc(C)no3)c(C)c2c1 (stereo in doubt) [Compound 151] | +++ (between 100- to 1000-fold selective) | 1 to 10 | > 1000
CCc1cc(F)c2nc(N3CCN(CCC4CC(F)(F)C4)C[C@H]3C)c(-c3nc(C)no3)c(C)c2c1 [Compound 186] | +++ (between 100- to 1000-fold selective) | 1 to 10 | 100 to 1000
CCc1cc(F)c2nc(N3CCN(C(=O)CN(C)C)C[C@H]3C)c(-c3cc(C)no3)c(C)c2c1 [Compound 181] | +++ (between 100- to 1000-fold selective) | 10 to 100 | > 1000
CCc1cc(F)c2nc(N3CCN(/C(=N/C#N)NC[C@H](Cc4ccc(O)cc4)N(C)C)C[C@H]3C)c(-c3nc(C)no3)c(C)c2c1 [Compound 48] | + (less than 10-fold selectivity) | 10 to 100 | 100 to 1000
CCc1cc(F)c2nc(N3CCN(CC(C)C)C[C@H]3C)c(-c3nc(C)no3)c(C)c2c1 [Compound 25] | +++ (between 100- to 1000-fold selective) | < 1 | > 1000
CCc1cc(F)c2nc(N3CCC(N[C@H]4CCOC4)CC3)c(-c3cc(C)n(C)n3)c(C)c2c1 [Compound 18, (S)-1-(3-(1,5-dimethyl-1H-pyrazol-3-yl)-6-ethyl-8-fluoro-4-methylquinolin-2-yl)-N-(tetrahydrofuran-3-yl)piperidin-4-amine] | +++ (between 100- to 1000-fold selective) | 1 to 10 | > 1000
CCc1cc(F)c2nc(N3CCN(C(=O)C4CN(C)C4)C[C@H]3C)c(-c3nc(C)no3)c(C)c2c1 [Compound 45] | ++ (between 10- and 100-fold selectivity) | 10 to 100 | > 1000
CCc1cc(F)c2nc(N3CCC(N[C@@H]4CCOC[C@H]4O)CC3)c(-c3cc(C)n(C)n3)c(C)c2c1 [Compound 17, (3S,4R)-4-((1-(3-(1,5-dimethyl-1H-pyrazol-3-yl)-6-ethyl-8-fluoro-4-methylquinolin-2-yl)piperidin-4-yl)amino)tetrahydro-2H-pyran-3-ol] | ++ (between 10- and 100-fold selectivity) | 1 to 10 | 100 to 1000
CCc1cc(F)c2nc(N3CC[C@@H](N[C@@H]4CCOC4)C[C@@H]3C)c(-c3ccn(C)n3)c(C)c2c1 [Compound 116] | ++++ (more than 1000-fold selectivity over MOR) | 1 to 10 | > 1000
CCc1cc(F)c2nc(N3CCN(CC4CCOCC4)[C@@H](C)C3)c(-c3nc(C)no3)c(C)c2c1 [Compound 38, (S)-5-(6-ethyl-8-fluoro-4-methyl-2-(3-methyl-4-((tetrahydro-2H-pyran-4-yl)methyl)piperazin-1-yl)quinolin-3-yl)-3-methyl-1,2,4-oxadiazole] | ++ (between 10- and 100-fold selectivity) | 10 to 100 | > 1000
CCc1cc(-c2ccnn2C)c2nc(N3CCC(N4CCOC[C@@H]4C)CC3)c(-c3ccn(C)n3)c(C)c2c1 [Compound 92] | – | > 1000 | > 1000
CCc1cc(F)c2nc(N3CCN(/C(=N\C#N)NC4CCOCC4)C[C@H]3C)c(-c3ccn(C)n3)c(C)c2c1 [Compound 11, (R,E)-N′-cyano-4-(6-ethyl-8-fluoro-4-methyl-3-(1-methyl-1H-pyrazol-3-yl)quinolin-2-yl)-3-methyl-N-(tetrahydro-2H-pyran-4-yl)piperazine-1-carboximidamide] | ++ (between 10- and 100-fold selectivity) | 10 to 100 | 1 to 10
CCc1cc(F)c2nc(N3CCN(C4CCOCC4)C[C@@H]3C)c(-c3nc(C)no3)c(C)c2c1 [Compound 27, (S)-5-(6-ethyl-8-fluoro-4-methyl-2-(2-methyl-4-(tetrahydro-2H-pyran-4-yl)piperazin-1-yl)quinolin-3-yl)-3-methyl-1,2,4-oxadiazole] | ++ (between 10- and 100-fold selectivity) | ≥ 100 | > 1000
CCc1cc(F)c2nc(N3[C@H](C)CN(C(=O)CN4CCCC4)C[C@H]3C)c(-c3nc(C)no3)c(C)c2c1 [Compound 161] | +++ (between 100- to 1000-fold selective) | < 1 | 100 to 1000
